Measurements reported in patent US9597314B2, “Beta-lactamylalkanoic acids for treating premenstrual disorders” (AZEVAN PHARMACEUTICALS, INC., priority 2005, dated 2017).

Molecular target: V1a (Homo sapiens, UniProt P37288)
Test: Human vasopression V1a receptor binding assay
Set-up: host or cells: CHO cells (hV1a cell line), whole adherent cells
Settings: hV1a cell line (CHO); for IC50: 1 nM 3H-AVP, Table 17, read-out: V1a Binding Affinity (IC50 (nM)); for Ki: Table 18
Experimental: Human vasopression V1a receptor binding assay. A cell line expressing the human V1a receptor in CHO cells (henceforth referred to as the hV1a cell line) was obtained from Dr. Michael Brownstein, NIMH, Bethesda, Md., USA. The hV1a cDNA sequence is described by Thibonnier et al., Journal of Biological Chemistry, 269, 3304-3310 (1994), and the expression method was the same as described by Morel et al. (1992). The hV1a cell line was grown in alpha-MEM with 10% fetal bovine serum and 250 ug/ml G418 (Gibco, Grand Island, N.Y., USA). For competitive binding assay, hV1a cells were plated into 6-well culture plate at 1:10 dilution from a confluency flask, and maintained in culture for at least two days. Culture medium was then removed, cells were washed with 2 ml binding buffer (25 mM Hepes, 0.25% BSA, 1×DMEM, PH=7.0). To each well, 990 μl binding buffer containing 1 nM 3H-AVP was added, and followed by 10 μl series diluted Example compounds dissolved in DMSO. […] 100 nM cold AVP (Sigma) was used to assess non-specific binding. Cells were incubated for 45 minutes at 37° C., assay mixture was removed and each well was washed three times with PBS (pH=7.4). 1 ml 2% SDS was added per well and plates were let sit for 30 minutes. The whole content in a well was transferred to a scintillation vial. Each well was rinsed with 0.5 ml PBS which was then added to the corresponding vial. Scintillation fluid (Ecoscint, National Diagnostics, Atlanta, Ga.) was then added at 3 ml per vial. Samples were counted in a liquid scintillation counter (Beckman LS3801). IC50 values were calculated by Prism Curve fitting software.
All of the alkanedioic esters and amides exemplified in the foregoing examples dissolved in DMSO were tested in this assay. Binding curves were generated according to methods described by Thibonnier et al. (1994). [^3H]-AVP was added to the hV1a cell cultures followed by 10 fold dilutions of each test compound.

Sequence of V1a (P37288 whole entry): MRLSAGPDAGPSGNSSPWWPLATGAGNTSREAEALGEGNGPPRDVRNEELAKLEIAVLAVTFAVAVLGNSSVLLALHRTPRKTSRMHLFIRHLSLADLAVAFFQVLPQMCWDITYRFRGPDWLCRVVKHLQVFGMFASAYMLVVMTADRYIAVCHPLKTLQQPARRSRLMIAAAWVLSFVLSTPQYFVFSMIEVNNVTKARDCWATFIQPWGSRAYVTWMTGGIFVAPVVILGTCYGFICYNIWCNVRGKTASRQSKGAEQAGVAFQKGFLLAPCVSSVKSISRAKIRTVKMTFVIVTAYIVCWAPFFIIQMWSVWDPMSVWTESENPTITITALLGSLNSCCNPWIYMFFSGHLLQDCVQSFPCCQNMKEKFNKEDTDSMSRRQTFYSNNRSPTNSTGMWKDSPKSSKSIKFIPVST

C[C@@]1(N2C(=O)OC[C@@H]2c2ccccc2)C(=O)N([C@H](CC(=O)N2CCC(N3CCCCC3)CC2)C(=O)NCc2cccc(C(F)(F)F)c2)[C@@H]1/C=C/c1ccccc1 [Example 234A, 4-(Piperidinyl)-piperidinyl 3(R)-[3(S)-(4(S)-phenyloxazolidin-2-on-3-yl)-3-methyl-4(R)-(styr-2-yl)azetidin-2-on-1-yl]-3-[(3-trifluoromethyl)phenylmethylaminocarbonyl]propanoic acid]
IC50: 8.6 nM
Ki: 5.25 nM

Cc1ccc(CNC(=O)[C@H](CCC(=O)N2CCN(C3CCCCC3)CC2)N2C(=O)[C@@H](N3C(=O)OC[C@@H]3c3ccccc3)[C@H]2/C=C/c2ccccc2)cc1 [Example 194]
IC50: < 100 nM

O=C(NCc1cccc([N+](=O)[O-])c1)[C@H](CCC(=O)N1CCN(C2CCCCC2)CC1)N1C(=O)[C@@H](N2C(=O)OC[C@@H]2c2ccccc2)[C@H]1/C=C/c1ccccc1 [Example 189]
IC50: 1.7 nM
Ki: 1.04 nM

Cc1cccc(CNC(=O)[C@H](CCC(=O)N2CCN(C3CCCCC3)CC2)N2C(=O)[C@@H](N3C(=O)OC[C@@H]3c3ccccc3)[C@H]2/C=C/c2ccccc2)c1 [Example 193]
IC50: 1.17 nM
Ki: 0.72 nM

O=C(NCc1cccnc1)[C@H](CCC(=O)N1CCN(C2CCCCC2)CC1)N1C(=O)[C@@H](N2C(=O)OC[C@@H]2c2ccccc2)[C@H]1/C=C/c1ccccc1 [Example 209]
IC50: 16 nM
Ki: 9.8 nM

O=C(NCc1cc(Cl)ccc1Cl)[C@H](CCC(=O)N1CCN(C2CCCCC2)CC1)N1C(=O)[C@@H](N2C(=O)OC[C@@H]2c2ccccc2)[C@H]1/C=C/c1ccccc1 [Example 175]
IC50: 4.56 nM
Ki: 2.79 nM

O=C(NCc1cccc(Br)c1)[C@H](CCC(=O)N1CCN(C2CCCCC2)CC1)N1C(=O)[C@@H](N2C(=O)OC[C@@H]2c2ccccc2)[C@H]1/C=C/c1ccccc1 [Example 190]
IC50: 0.88 nM
Ki: 0.54 nM

O=C(NCc1cccc(Cl)c1Cl)[C@H](CCC(=O)N1CCN(C2CCCCC2)CC1)N1C(=O)[C@@H](N2C(=O)OC[C@@H]2c2ccccc2)[C@H]1/C=C/c1ccccc1 [Example 176]
IC50: 0.61 nM

O=C(NC1(c2ccccc2)CCCC1)[C@H](CCC(=O)N1CCN(C2CCCCC2)CC1)N1C(=O)[C@@H](N2C(=O)OC[C@@H]2c2ccccc2)[C@H]1/C=C/c1ccccc1 [Example 217]
IC50: 3.17 nM
Ki: 1.94 nM

O=C(NCc1cccc(C(F)(F)F)c1)[C@H](CCC(=O)N1CCN(C2CCCCC2)CC1)N1C(=O)[C@@H](N2C(=O)OC[C@@H]2c2ccccc2)[C@H]1CCc1ccccc1 [Example 236, (2S)-[(4-cyclohexylpiperazinyl)carbonylethyl]-2-[3(S)-(4(S)-phenyloxazolidin-2-on-3-yl)-4(R)-(2-phenyleth-1-yl)azetidin-2-on-1-yl]acetic acid N-(3-trifluoromethylbenzyl)amide]
IC50: 1.68 nM
Ki: 1.03 nM

CCN1CCC[C@H]1CNC(=O)CC[C@@H](C(=O)N[C@@H]1CCCc2ccccc21)N1C(=O)[C@@H](N2C(=O)OC[C@@H]2c2ccccc2)[C@H]1/C=C/c1ccccc1 [Example 221AI]
IC50: ~50 nM

CCCCN1CCN(C(=O)CC[C@@H](C(=O)NCc2cccc(C(F)(F)F)c2)N2C(=O)C(N3C(=O)OC[C@@H]3c3ccccc3)C2/C(Br)=C/c2ccccc2)CC1 (stereo partly drawn) [Example 230L]
IC50: 12.7 nM
Ki: 7.8 nM

CC(C)N1CCN(C(=O)CCC(C(=O)NCc2cccc(C(F)(F)F)c2)N2C(=O)C(N3C(=O)OCC3c3ccccc3)C2C=Cc2ccccc2)CC1 (single isomer, unassigned) [Example 104]
Ki: 1.13 nM

O=C(NCc1cc(Cl)cc(Cl)c1)[C@H](CCC(=O)N1CCN(C2CCCCC2)CC1)N1C(=O)[C@@H](N2C(=O)OC[C@@H]2c2ccccc2)[C@H]1/C=C/c1ccccc1 [Example 174]
IC50: 1.46 nM
Ki: 0.89 nM

O=C(NCc1cccc(C(F)(F)F)c1)[C@H](CCC(=O)N1CCN(CCC2CCCCC2)CC1)N1C(=O)[C@@H](N2C(=O)OC[C@@H]2c2ccccc2)[C@H]1/C=C/c1ccccc1 [Example 111]
Ki: 0.82 nM

O=C(CC[C@@H](C(=O)N1CCc2ccccc2C1)N1C(=O)[C@@H](N2C(=O)OC[C@@H]2c2ccccc2)[C@H]1/C=C/c1ccccc1)N1CCN(C2CCCCC2)CC1 [Example 221O]
IC50: 8.4 nM
Ki: 5.1 nM

O=C(N[C@@H]1CCCc2ccccc21)[C@H](CCC(=O)N1CCC[C@H]1CN1CCCC1)N1C(=O)[C@@H](N2C(=O)OC[C@@H]2c2ccccc2)[C@H]1/C=C/c1ccccc1 [Example 221Y]
IC50: 7.6 nM
Ki: 4.7 nM

O=C([C@@H](COCc1ccccc1)N1C(=O)[C@@H](N2C(=O)OC[C@@H]2c2ccccc2)[C@H]1/C=C/c1ccccc1)N1CCC(N2CCCCC2)CC1 [Example 232]
IC50: 1.37 nM
Ki: 0.84 nM

CC(C)N1CCN(C(=O)C(C(=O)NCc2cccc(C(F)(F)F)c2)N2C(=O)[C@@H](N3C(=O)OC[C@@H]3c3ccccc3)[C@H]2/C=C/c2ccccc2)CC1 (mixture of isomers) [Example 41]
Ki: 18.2 nM

CN(Cc1cccc(C(F)(F)F)c1)C(=O)[C@H](CCC(=O)N1CCN(C2CCCCC2)CC1)N1C(=O)[C@@H](N2C(=O)OC[C@@H]2c2ccccc2)[C@H]1/C=C/c1ccccc1 [Example 205]
IC50: 0.34 nM
Ki: 0.21 nM

O=C(NCc1cccc(C(F)(F)F)c1)[C@H](CCC(=O)N1CCC(CCN2CCCCC2)CC1)N1C(=O)[C@@H](N2C(=O)OC[C@@H]2c2ccccc2)[C@H]1/C=C/c1ccccc1 [Example 120A]
IC50: 16.2 nM
Ki: 9.9 nM

O=C(NCc1cccc(C(F)(F)F)c1)[C@H](CC(=O)N1CCC(CCN2CCCCC2)CC1)N1C(=O)[C@@H](N2C(=O)OC[C@@H]2c2ccccc2)[C@H]1/C=C/c1ccccc1 [Example 86A]
IC50: 9.79 nM
Ki: 6 nM

O=C(NC1Cc2ccccc2C1)[C@H](CCC(=O)N1CCN(C2CCCCC2)CC1)N1C(=O)[C@@H](N2C(=O)OC[C@@H]2c2ccccc2)[C@H]1/C=C/c1ccccc1 [Example 221P]
IC50: 1.7 nM
Ki: 1.1 nM

O=C(NCc1cccc(Cl)c1)[C@H](CCC(=O)N1CCN(C2CCCCC2)CC1)N1C(=O)[C@@H](N2C(=O)OC[C@@H]2c2ccccc2)[C@H]1/C=C/c1ccccc1 [Example 187]
IC50: 1 nM

O=C(NCc1ccc(Cl)c(Cl)c1)[C@H](CCC(=O)N1CCN(C2CCCCC2)CC1)N1C(=O)[C@@H](N2C(=O)OC[C@@H]2c2ccccc2)[C@H]1/C=C/c1ccccc1 [Example 173]
IC50: < 100 nM

O=C(C[C@H](C(=O)NCc1cccc(C(F)(F)F)c1)N1C(=O)[C@@H](N2C(=O)OC[C@@H]2c2ccccc2)[C@H]1/C=C/c1ccccc1)NC1CCN(Cc2ccccc2)CC1 [Example 134C]
IC50: 9.1 nM
Ki: 5.58 nM

CC(C)N1CCN(C(=O)CC[C@@H](C(=O)NCc2cccc(C(F)(F)F)c2)N2C(=O)[C@@H](N3C(=O)OC[C@@H]3c3ccccc3)[C@H]2/C(Cl)=C/c2ccccc2)CC1 [Example 230]
IC50: 7.07 nM
Ki: 4.33 nM

O=C(NCc1ccccc1C(F)(F)F)[C@H](CCC(=O)N1CCN(C2CCCCC2)CC1)N1C(=O)[C@@H](N2C(=O)OC[C@@H]2c2ccccc2)[C@H]1/C=C/c1ccccc1 [Example 182]
IC50: 1.52 nM

O=C(NCc1cc(F)cc(C(F)(F)F)c1)[C@H](CCC(=O)N1CCN(C2CCCCC2)CC1)N1C(=O)[C@@H](N2C(=O)OC[C@@H]2c2ccccc2)[C@H]1/C=C/c1ccccc1 [Example 179]
IC50: 0.81 nM

Cc1ccccc1C(C)(C)NC(=O)[C@H](CCC(=O)N1CCN(C2CCCCC2)CC1)N1C(=O)[C@@H](N2C(=O)OC[C@@H]2c2ccccc2)[C@H]1/C=C/c1ccccc1 [Example 221]
IC50: 5.1 nM

CCCCN1CCN(C(=O)CCC(C(=O)NCc2cccc(C(F)(F)F)c2)N2C(=O)C(N3C(=O)OCC3c3ccccc3)C2C=Cc2ccccc2)CC1 (single isomer, unassigned) [Example 103]
Ki: 0.49 nM

O=C(NCc1ccc(F)c(Cl)c1)[C@H](CCC(=O)N1CCN(C2CCCCC2)CC1)N1C(=O)[C@@H](N2C(=O)OC[C@@H]2c2ccccc2)[C@H]1/C=C/c1ccccc1 [Example 186]
IC50: < 10 nM

O=C(NCc1cccc(C(F)(F)F)c1)[C@H](CCC(=O)N1CCN(CCN2CCOCC2)CC1)N1C(=O)[C@@H](N2C(=O)OC[C@@H]2c2ccccc2)[C@H]1/C=C/c1ccccc1 [Example 112]
Ki: 0.8 nM

O=C(CC[C@@H](C(=O)N[C@@H]1CCCc2ccccc21)N1C(=O)[C@@H](N2C(=O)OC[C@@H]2c2ccccc2)[C@H]1/C=C/c1ccccc1)NC1CN2CCC1CC2 (stereo partly drawn) [Example 221AE]
IC50: ~50 nM

O=C(NC(c1ccccc1)c1ccccc1)[C@H](CCC(=O)N1CCN(C2CCCCC2)CC1)N1C(=O)[C@@H](N2C(=O)OC[C@@H]2c2ccccc2)[C@H]1/C=C/c1ccccc1 [Example 221K]
IC50: ~5 nM
